Reference: ChEMBL document CHEMBL2439977, “Discovery of novel bacterial RNA polymerase inhibitors: pharmacophore-based virtual screening and hit optimization” (J Med Chem, 2013)
Values after ≈ are worked out from the molar mass of the structure shown. Active and inactive are the calls of the source. The rule behind the calls is not given here.

Key:
Escherichia coli [1] = test: Antibacterial activity against Escherichia coli expressing TolC mutant; format: functional
[2] = Inhibition of Escherichia coli RNA polymerase by transcription assay
Staphylococcus aureus = test: Antibacterial activity against Staphylococcus aureus; format: functional
Bacillus subtilis = test: Antibacterial activity against Bacillus subtilis; format: functional
Escherichia coli [3] = test: Antibacterial activity against Escherichia coli K-12; format: functional
Pseudomonas aeruginosa = test: Antibacterial activity against Pseudomonas aeruginosa PAO1; format: functional
Escherichia coli [4] = test: Ratio of IC50 for Escherichia coli RNA polymerase core enzyme to IC50 for Escherichia coli RNA polymerase holo enzyme
Escherichia coli [5] = test: Induction of resistant frequency in Escherichia coli expressing TolC mutant at 2 times MIC treated for every 3 days; format: functional, organism-based
[6] = Inhibition of Escherichia coli RNA polymerase-RNA polymerase sigma factor RpoD interaction by ELISA
[7] = Inhibition of Escherichia coli RNA polymerase holo enzyme by transcription assay
[8] = Inhibition of Escherichia coli RNA polymerase core enzyme by transcription assay
Escherichia coli [9] = test: Inhibition of Escherichia coli RNA polymerase at 200 uM by transcription assay
Escherichia coli [10] = test: Inhibition of DNA synthesis in Escherichia coli expressing TolC mutant at 4 times MIC after 45 mins; format: functional, organism-based
Escherichia coli [11] = test: Inhibition of lipid synthesis in Escherichia coli expressing TolC mutant at 4 times MIC after 45 mins; format: functional, organism-based
Escherichia coli [12] = test: Inhibition of RNA synthesis in Escherichia coli expressing TolC mutant at 4 times MIC after 45 mins; format: functional, organism-based
Escherichia coli [13] = test: Inhibition of protein synthesis in Escherichia coli expressing TolC mutant at 4 times MIC after 45 mins; format: functional, organism-based
Escherichia coli [14] = test: Inhibition of Escherichia coli RNA polymerase-RNA polymerase sigma factor RpoD interaction at 10 uM by ELISA
Escherichia coli [15] = test: Inhibition of Escherichia coli RNA polymerase-RNA polymerase sigma factor RpoD interaction at 50 uM by ELISA
Escherichia coli [16] = test: Inhibition of Escherichia coli RNA polymerase at 50 uM by transcription assay

## O=C(Nc1ccc(F)cc1C(=O)O)c1ccc(-c2ccccc2)cc1
Escherichia coli [1]
  MIC: 7 µg/mL (≈ 20.9 µM)
[2]; read-out: IC50
  IC50: 138 µM

## O=C(Nc1ccc(Cl)cc1C(=O)O)c1ccc(-c2ccccc2)cc1
Escherichia coli [1]
  MIC: 2 µg/mL (≈ 5.69 µM)
[2]; read-out: IC50
  IC50: 46 µM

## O=C(Nc1cc(Cl)ccc1C(=O)O)c1cccc(Oc2ccccc2)c1
Staphylococcus aureus
  MIC: 14 µg/mL (≈ 38.1 µM)
Escherichia coli [1]
  MIC: 3 µg/mL (≈ 8.16 µM)
Bacillus subtilis
  MIC: 3 µg/mL (≈ 8.16 µM)
Escherichia coli [3]
  MIC: > 50 µg/mL
Pseudomonas aeruginosa
  MIC: > 50 µg/mL
[2]; read-out: IC50
  IC50: 44 µM

## O=C(Nc1cc(Br)ccc1C(=O)O)c1cccc(Oc2ccccc2)c1
Staphylococcus aureus
  MIC: 8 µg/mL (≈ 19.4 µM)
Escherichia coli [1]
  MIC: 3 µg/mL (≈ 7.28 µM)
Bacillus subtilis
  MIC: 3 µg/mL (≈ 7.28 µM)
Escherichia coli [3]
  MIC: > 25 µg/mL
Pseudomonas aeruginosa
  MIC: > 25 µg/mL
[2]; read-out: IC50
  IC50: 34 µM

## COc1ccc(C(=O)O)c(NC(=O)c2ccc(-c3ccccc3)cc2)c1
Escherichia coli [1]
  MIC: 9 µg/mL (≈ 25.9 µM)
[2]; read-out: IC50
  IC50: 162 µM

## O=C(Nc1ccc(C(F)(F)F)cc1C(=O)O)c1ccc(-c2ccccc2)cc1
Staphylococcus aureus
  MIC: 5 µg/mL (≈ 13 µM)
Escherichia coli [1]
  MIC: 2 µg/mL (≈ 5.19 µM)
Escherichia coli [4]
  Ratio IC50: 4
Escherichia coli [5]
  Activity: Active
[6]
  IC50: 60 µM
[7]
  IC50: 28 µM
Bacillus subtilis
  MIC: 4 µg/mL (≈ 10.4 µM)
[8]
  IC50: 67 µM
Escherichia coli [3]
  MIC: > 50 µg/mL
Pseudomonas aeruginosa
  MIC: > 50 µg/mL
[2]; read-out: IC50
  IC50: 28 µM

## O=C(Nc1cc(F)ccc1C(=O)O)c1ccc(-c2ccccc2)cc1
Escherichia coli [1]
  MIC: 4 µg/mL (≈ 11.9 µM)
[2]; read-out: IC50
  IC50: 98 µM

## O=C(Nc1cc(Cl)ccc1C(=O)O)c1ccc(-c2ccccc2)c(Oc2ccccc2)c1
Escherichia coli [1]
  MIC: > 25 µg/mL
Escherichia coli [4]
  Ratio IC50: 2.9
[6]
  IC50: 33 µM
[7]
  IC50: 7 µM
[8]
  IC50: 12 µM
[2]; read-out: IC50
  IC50: 9 µM

## COc1ccc(NC(=O)c2ccc(-c3ccccc3)cc2)c(C(=O)O)c1
Escherichia coli [1]
  MIC: 8 µg/mL (≈ 23 µM)
Escherichia coli [9]
  inhibition: 52%

## COc1cccc(NC(=O)c2ccc(-c3ccccc3)cc2)c1C(=O)O
Escherichia coli [1]
  MIC: 58 µg/mL (≈ 167 µM)
[2]
  IC50: Not Active

## O=C(Nc1ccc(OC(F)(F)F)cc1C(=O)O)c1ccc(-c2ccccc2)cc1
Escherichia coli [1]
  MIC: 4 µg/mL (≈ 9.97 µM)
[2]; read-out: IC50
  IC50: 31 µM

## O=C(Nc1cc(F)ccc1C(=O)O)c1ccc(-c2ccccc2)c(Oc2ccccc2)c1
Staphylococcus aureus
  MIC: 17 µg/mL (≈ 39.8 µM)
Escherichia coli [1]
  MIC: > 25 µg/mL
Bacillus subtilis
  MIC: > 25 µg/mL
Escherichia coli [3]
  MIC: > 25 µg/mL
Pseudomonas aeruginosa
  MIC: > 25 µg/mL
[2]; read-out: IC50
  IC50: 13 µM

## CCCC/C(C)=C/C=C(\C)C(=O)c1c(O)cc([C@H](C)CC/C=C/NC(=O)OC)oc1=O [MYXOPYRONIN B]
Staphylococcus aureus
  MIC: 0.5 µg/mL (≈ 1.16 µM)
Escherichia coli [1]
  MIC: 1 µg/mL (≈ 2.32 µM)
Bacillus subtilis
  MIC: 0.9 µg/mL (≈ 2.09 µM)
Escherichia coli [3]
  MIC: > 25 µg/mL
Pseudomonas aeruginosa
  MIC: > 25 µg/mL
[2]; read-out: IC50
  IC50: 0.35 µM

## O=C(Nc1ccccc1C(=O)O)c1ccc(-c2ccccc2)cc1
Escherichia coli [1]
  MIC: 13 µg/mL (≈ 41 µM)
Escherichia coli [9]
  inhibition: 31%

## O=C(Nc1cc(-c2ccccc2)ccc1C(=O)O)c1cccc(Oc2ccccc2)c1
Escherichia coli [1]
  MIC: 8 µg/mL (≈ 19.5 µM)
[2]; read-out: IC50
  IC50: 14 µM

## O=C(Nc1ccc(Br)cc1C(=O)O)c1ccc(-c2ccccc2)cc1
Escherichia coli [1]
  MIC: 3 µg/mL (≈ 7.57 µM)
[2]; read-out: IC50
  IC50: 31 µM

## O=C(Nc1c(Cl)cccc1C(=O)O)c1ccc(-c2ccccc2)cc1
Escherichia coli [1]
  MIC: 55 µg/mL (≈ 156 µM)
[2]
  IC50: Not Active

## COc1cc(NC(=O)c2cccc(Oc3ccccc3)c2)c(C(=O)O)cc1OC
Escherichia coli [1]
  MIC: 6 µg/mL (≈ 15.3 µM)
[2]; read-out: IC50
  IC50: 154 µM

## O=C(Nc1ccc(Br)cc1C(=O)O)c1cccc(Cc2ccccc2)c1
Escherichia coli [1]
  MIC: 2 µg/mL (≈ 4.87 µM)
[2]; read-out: IC50
  IC50: 37 µM

## C=CCN1C(=O)/C(=C/c2ccc(-c3cccc(C(=O)O)c3)o2)SC1=S
Escherichia coli [4]
  Ratio IC50: 2.6
[6]
  IC50: 30 µM
[7]
  IC50: 38 µM
[8]
  IC50: 57 µM

## O=C(Nc1ccc(F)cc1C(=O)O)c1cccc(Oc2ccccc2)c1
Staphylococcus aureus
  MIC: 48 µg/mL (≈ 137 µM)
Escherichia coli [1]
  MIC: 5 µg/mL (≈ 14.2 µM)
Bacillus subtilis
  MIC: 4 µg/mL (≈ 11.4 µM)
Escherichia coli [3]
  MIC: > 100 µg/mL
Pseudomonas aeruginosa
  MIC: > 100 µg/mL
[2]; read-out: IC50
  IC50: 98 µM

## O=C(Nc1ccccc1C(=O)O)c1ccccc1
Escherichia coli [1]
  MIC: > 100 µg/mL
[2]
  IC50: Not Active

## O=C(Nc1ccc(-c2ccccc2)cc1C(=O)O)c1cccc(Oc2ccccc2)c1
Escherichia coli [10]
  inhibition: inactive
Escherichia coli [11]
  inhibition: inactive
Staphylococcus aureus
  MIC: 6 µg/mL (≈ 14.7 µM)
Escherichia coli [1]
  MIC: 2 µg/mL (≈ 4.88 µM)
Escherichia coli [4]
  Ratio IC50: 2.8
Escherichia coli [5]
  Activity: Active
[6]
  IC50: 47 µM
[7]
  IC50: 16 µM
Escherichia coli [12]
  inhibition: inactive
Bacillus subtilis
  MIC: 3 µg/mL (≈ 7.33 µM)
Escherichia coli [13]
  inhibition: inactive
[8]
  IC50: 27 µM
Escherichia coli [3]
  MIC: > 25 µg/mL
Pseudomonas aeruginosa
  MIC: > 25 µg/mL
[2]; read-out: IC50
  IC50: 13 µM

## O=C(Nc1cc([N+](=O)[O-])ccc1C(=O)O)c1ccc(-c2ccccc2)cc1
Escherichia coli [1]
  MIC: > 25 µg/mL
[2]; read-out: IC50
  IC50: 36 µM

## O=C(Nc1ccc(O)cc1C(=O)O)c1ccc(-c2ccccc2)cc1
Escherichia coli [1]
  MIC: 31 µg/mL (≈ 93 µM)
Escherichia coli [9]
  inhibition: 17%

## O=C(Nc1cc(Br)ccc1C(=O)O)c1ccc(-c2ccccc2)cc1
Escherichia coli [1]
  MIC: 2 µg/mL (≈ 5.05 µM)
Escherichia coli [4]
  Ratio IC50: 3
[6]
  IC50: 68 µM
[7]
  IC50: 27 µM
[8]
  IC50: 39 µM
[2]; read-out: IC50
  IC50: 28 µM

## CCCN(CCC)S(=O)(=O)c1ccc(C(=O)Nc2cc3ccccc3cc2C(=O)O)cc1
Escherichia coli [4]
  Ratio IC50: 2.6
[6]
  IC50: 97 µM
[7]
  IC50: 52 µM
[8]
  IC50: 81 µM

## O=C(Nc1cc(C(F)(F)F)ccc1C(=O)O)c1ccc(-c2ccccc2)cc1
Escherichia coli [1]
  MIC: 5 µg/mL (≈ 13 µM)
[2]; read-out: IC50
  IC50: 27 µM

## O=C(Nc1ccccc1C(=O)O)c1cccc(Oc2ccccc2)c1
Escherichia coli [1]
  MIC: 9 µg/mL (≈ 27 µM)
Escherichia coli [9]
  inhibition: 23%

## O=C(Nc1ccc(Br)cc1C(=O)O)c1cccc(Oc2ccccc2)c1
Escherichia coli [1]
  MIC: 3 µg/mL (≈ 7.28 µM)
[2]; read-out: IC50
  IC50: 34 µM

## O=C(Nc1cccc(F)c1C(=O)O)c1ccc(-c2ccccc2)cc1
Escherichia coli [1]
  MIC: 34 µg/mL (≈ 101 µM)
Escherichia coli [9]
  inhibition: 14%

## Cc1ccc(NC(=O)c2ccc(-c3ccccc3)cc2)c(C(=O)O)c1
Escherichia coli [1]
  MIC: 7 µg/mL (≈ 21.1 µM)
[2]; read-out: IC50
  IC50: 139 µM

## CO[C@H]1/C=C/O[C@@]2(C)Oc3c(C)c(O)c4c(O)c(c(/C=N/N5CCN(C)CC5)c(O)c4c3C2=O)NC(=O)/C(C)=C\C=C\[C@H](C)[C@H](O)[C@@H](C)[C@@H](O)[C@@H](C)[C@H](OC(C)=O)[C@@H]1C [RIFAMPIN]
Escherichia coli [14]
  inhibition: < 5%
Staphylococcus aureus
  MIC: 0.02 µg/mL (≈ 0.0243 µM)
Escherichia coli [1]
  MIC: 10 µg/mL (≈ 12.2 µM)
Escherichia coli [4]
  Ratio IC50: 1
Escherichia coli [5]
  Activity: Active
[7]
  IC50: 0.027 µM
Bacillus subtilis
  MIC: 5 µg/mL (≈ 6.08 µM)
[8]
  IC50: 0.016 µM
Escherichia coli [3]
  MIC: 7 µg/mL (≈ 8.51 µM)
Pseudomonas aeruginosa
  MIC: 13 µg/mL (≈ 15.8 µM)
[2]; read-out: IC50
  IC50: 0.03 µM

## COc1cc(NC(=O)c2ccc(-c3ccccc3)cc2)c(C(=O)O)cc1OC
Escherichia coli [1]
  MIC: 19 µg/mL (≈ 50.3 µM)
Escherichia coli [9]
  inhibition: 35%

## O=C(Nc1cccc(Cl)c1C(=O)O)c1ccc(-c2ccccc2)cc1
Escherichia coli [1]
  MIC: 57 µg/mL (≈ 162 µM)
Escherichia coli [15]
  inhibition: < 10%
[2]
  IC50: Not Active

## N#Cc1ccc(NC(=O)c2ccc(-c3ccccc3)cc2)c(C(=O)O)c1
Escherichia coli [1]
  MIC: 7 µg/mL (≈ 20.4 µM)
Escherichia coli [16]
  inhibition: 23%

## O=C(Nc1cc(Cl)ccc1C(=O)O)c1ccc(-c2ccccc2)cc1
Staphylococcus aureus
  MIC: 24 µg/mL (≈ 68.2 µM)
Escherichia coli [1]
  MIC: 3 µg/mL (≈ 8.53 µM)
Bacillus subtilis
  MIC: 2 µg/mL (≈ 5.69 µM)
Escherichia coli [3]
  MIC: > 50 µg/mL
Pseudomonas aeruginosa
  MIC: > 50 µg/mL
[2]; read-out: IC50
  IC50: 37 µM

## O=C(Nc1ccccc1C(=O)O)c1ccc(-c2ccccc2)c(Oc2ccccc2)c1
Escherichia coli [1]
  MIC: 13 µg/mL (≈ 31.8 µM)
Escherichia coli [4]
  Ratio IC50: 3
[6]
  IC50: 41 µM
[7]
  IC50: 20 µM
[8]
  IC50: 36 µM
Escherichia coli [9]
  inhibition: 100%
[2]; read-out: IC50
  IC50: 20 µM
